Reference: US5281710A, “Dynemicin analogs: synthesis, methods of preparation and use” (The Scripps Research Institute, priority 1992, dated 1994)
Entries after “also recorded” stand apart in the source; their conditions may differ.

What was measured:
[1] = test system: MOLT-4 (Leukemia) cell line; assay: cells; format: cell-based; settings: Homo sapiens, MOLT-4, Molt-4 leukemia cell line; read-out: IC50
Protocol: (§1) In addition to the screening already discussed, several of the before-described compounds and chimeras were screened against several or all of a panel of ten to twenty-five cancerous cell lines as target cells and seven "normal" cell preparations. This screening utilized a sulforhodamine B cytotoxidity assay as discussed below.
(§2) IC50 values; i.e., the concentration of Compound required to kill one-half of the treated cells, were then calculated.

[2] = test system: NHDF normal human dermal fibroblasts; assay: cells; format: cell-based; settings: NHDF
Protocol: as §1, §2
NHDF Normal human dermal fibroblasts

SK-Mel-28 melanoma cells = assay: Sulforhodamine B cytotoxicity, SK-Mel-28; format: cell-based; settings: Homo sapiens, SK-MEL-28, SK-Mel-28; read-out: IC50
Protocol: as §1, §2

[3] = test system: Ovcar-3 ovarian carcinoma cells; assay: Sulforhodamine B cytotoxicity, Ovcar-3; format: cell-based; settings: Homo sapiens, OVCAR-3, Ovcar-3; read-out: IC50
Protocol: as §1, §2

[4] = test system: HT-29 colon carcinoma cells; assay: Sulforhodamine B cytotoxicity, HT-29; format: cell-based; settings: Homo sapiens, HT-29, colon carcinoma H-29 (Table 4) / HT-29 (Table 5); read-out: IC50
Protocol: as §1, §2

[5] = test system: MCF-7 breast carcinoma cells; assay: Sulforhodamine B cytotoxicity, MCF-7; format: cell-based; settings: Homo sapiens, MCF7, MCF-7; read-out: IC50
Protocol: as §1, §2

[6] = test system: MCF-7(ADR) breast carcinoma cells; assay: Sulforhodamine B cytotoxicity, MCF-7/ADR; format: cell-based; settings: Homo sapiens, NCI/ADR-RES, Adriamycin resistant
Protocol: as §1, §2

[7] = test system: H-322 lung carcinoma cells; assay: Sulforhodamine B cytotoxicity, H-322; format: cell-based; settings: NCI-H322; H-322; read-out: IC50
Protocol: as §1, §2

[8] = test system: Capan-1 pancreatic carcinoma cells; assay: Sulforhodamine B cytotoxicity, Capan-1; format: cell-based; settings: Homo sapiens, CAPAN-1, Capan-1; read-out: IC50
Protocol: as §1, §2

[9] = test system: HL-60 promyeocytic leukemia cells; assay: Sulforhodamine B cytotoxicity, HL-60; format: cell-based; settings: Homo sapiens, HL-60, HL-60; read-out: IC50
Protocol: as §1, §2

[10] = test system: PC-3 prostate carcinoma cells; assay: Sulforhodamine B cytotoxicity, PC-3; format: cell-based; settings: Homo sapiens
Protocol: as §1, §2

[11] = test system: SIHA cervical carcinoma cells; assay: Sulforhodamine B cytotoxicity, SIHA; format: cell-based; settings: Homo sapiens
Protocol: as §1, §2

[12] = test system: NHEK normal human epidermal keratinocytes; assay: Sulforhodamine B cytotoxicity, NHEK; format: cell-based; settings: normal cells
Protocol: as §1, §2
NHEK Normal human epidermal keratinocytes

[13] = test system: HMEC human mammary epithelial cells; assay: Sulforhodamine B cytotoxicity, HMEC; format: cell-based; settings: Homo sapiens, normal cells
Protocol: as §1, §2
HMEC Human mammary epithelial cells

[14] = test system: CHO Chinese hamster ovary cells; assay: Sulforhodamine B cytotoxicity, CHO; format: cell-based; settings: Cricetulus griseus; CHO, normal cells
Protocol: as §1, §2

Water solubility = format: physicochemical
φX174 Form I DNA = settings: literature; cited from earlier work
[15] = mice, comparison value; cited from earlier work
cancer cell lines = assay: cells; format: cell-based; settings: Average data obtained from 5~10 cell lines; read-out: IC50 (average)
Protocol: as §1
SULFORHODAMINE B CYTOTOXICITY ASSAY
a. Stock drug solutions were prepared by dissolving drug in the appropriate solvent (determined during chemical characterization studies) and sterile filtering the drug-solvent solution through a sterile 0.2μ filter unit. An aliquot was taken from each filtered drug solution and the O.D. was measured to determine the drug concentration.
f. Incubate (37° C., 5-10 percent CO2 in humidified incubator) plates for a total of 72 hours. Check plates at 24 hour intervals microscopically for signs of cytotoxicity.
as §2
All other cells or cell lines were obtained from the American Type Culture Collection (ATCC) (all except CHO cells are human or mouse cancer cell lines as described by the ATC).
Tables 1 and 2 herein below provide average IC50 data from five to all ten of the above cancer cells lines for fused ring enediyne compounds disclosed herein. Those tables provide a generic structure and a description of the R group of that generic structure for each compound. Compound numbers as noted hereinbefore are also provided. Table 3 contains data for two fused-ring enediyne compounds (Compounds 47 and 120) as well as data for six chimers. Table 4 contains cancer cell and noraml cell cytotoxicity data for one select fused ring enediyne, Compound 153 against a number of "normal" cell preparations and tumor cell lines. Table 5 contains cancer cell and normal cell cytotoxicity data for another fused ring enediyne, Compound 250 against a similar panel of cells.

[16] = test system: MB49 murine bladder carcinoma cells; assay: 6-well cytotoxicity assay, MB49; format: cell-based; settings: MB-49
Protocol: MIA PaCa-2 cells, MB-49, CV-1 or WI-38 cells were loaded into each well of a 6-well plate at a density of 100,000 cells/well in 3 ml culture medium. They were incubated for 4 hours (37° C., 7 percent CO2). Then 6 microliters of solution containing a compound to be assayed were added into 3 ml of medium (RPMI-1640, with 5 percent fetal bovine serum and 1 percent glutamine) in a 500X dilution so that in one well ethanol was added to make a 0.2 percent ethanol control. The plates were then incubated for 4 days (37° C., 7 percent CO2). The medium was then drained, crystal violet dye (Hucker formula) was added to cover the well bottoms and then they were rinsed with tap water until rinses were clear. The stained cells were solubilized for quantitation with Sarkosyl solution (N-Lauryl sarcosine, 1 percent in water) at 3 ml/well. The absorbance of the solution was then read at 590-650 nm.

C[N+](C)(C)CC(=O)OCCOc1ccc2c(c1)[C@@]13O[C@]14CCC[C@H]3C#C/C=C\C#C[C@@H]4N2C(=O)OCCS(=O)(=O)c1ccccc1 (relative stereo) [Compound 250]
IC50 [1]: ~100 µM | IC50 ([2]; Homo sapiens, normal cells, read-out: IC50): 6.3 µM | IC50 (SK-Mel-28 melanoma cells): 3.1 µM | IC50 [3]: > 0.098 µM | IC50 [4]: 0.19 µM | IC50 [5]: > 0.098 µM | IC50 [6]: 0.19 µM | IC50 [7]: 13 µM | IC50 [8]: > 0.098 µM | IC50 [9]: > 0.098 µM | IC50 [10]: 1.6 µM | IC50 [11]: > 0.098 µM | IC50 [12]: 1.6 µM | IC50 [13]: 3.1 µM | IC50 [14]: 0.098 µM | water solubility (Water solubility): enhanced water solubility as compared to Compound 153; also recorded: more water soluble derivative of Compound 153

CCN[C@H]1CO[C@@H](O[C@H]2[C@H](O[C@H]3C#C/C=C\C#C[C@]4(O)CC(=O)C(NC(=O)OC)=C3/C4=C\CSSSC)O[C@H](C)[C@@H](NO[C@H]3C[C@H](O)[C@H](SC(=O)c4c(C)c(I)c(O[C@@H]5O[C@@H](C)[C@H](O)[C@@H](OC)[C@H]5O)c(OC)c4OC)[C@@H](C)O3)[C@@H]2O)C[C@@H]1OC [Calicheamicin]
IC50 ([2]; control drugs, read-out: Range of Average IC50 Values, NHDF): 0.0025 µM | DNA cleavage sequence specificity (φX174 Form I DNA): double DNA strand cuts at specific sequences | LD50 [15]: 5 µg/kg

O=C(Oc1ccccc1)N1c2ccccc2C23OC24CCCC3(O)C#C/C=C\C#CC14 (stereo not drawn) [Compound 2]
IC50 (cancer cell lines): 6.3 µM | anti-tumor cell activity [16]: more active against the cancerous MB-49 cells than against non-transformed CV-1 African green monkey kidney cells (ATCC CCL 70) or WI-38 human lung cells
